Test results taken from patent US5607926A, “Cephalosporin antibiotics” (Microcide Pharmaceuticals, Inc., priority 1995, dated 1997).
Converted amounts (≈) assume the structure as drawn. Where two headings read alike, the source gives them in different places.

Key:
[1] = test system: S. aureus ATCC 29213; experiment: In vitro antibacterial evaluation, MIC by agar dilution, S. aureus ATCC 29213; format: cell-based; conditions: Staphylococcus aureus, ATCC29213
In short: (§1)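 Log-phase isolates were spot-inoculated at about 10^4 cfu per spot onto Mueller-Hinton agar plates containing twofold compound dilutions (highest working concentration 128 μg/mL, lowest ≤0.25 μg/mL, duplicates). After 16-20 h at 35-36 °C, the lowest growth-inhibiting level was taken as MIC, per NCCLS agar dilution.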

[2] = test system: S. aureus ATCC 25923; experiment: In vitro antibacterial evaluation, MIC by agar dilution, S. aureus ATCC 25923; format: cell-based
In short: as §1

[3] = test system: S. epidermidis ATCC 31432; experiment: In vitro antibacterial evaluation, MIC by agar dilution, S. epidermidis ATCC 31432; format: cell-based
In short: as §1

[4] = test system: S. aureus Col8A (Meth^S)(lac^-); experiment: In vitro antibacterial evaluation, MIC by agar dilution, S. aureus Col8A; format: cell-based
In short: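 Log-phase isolates were spot-inoculated at about 10^4 cfu onto Mueller-Hinton agar carrying duplicate two-fold compound levels, 128 μg/mL to ≤0.25 μg/mL, following NCCLS (1991). Plates were read after 16-20 h at 35°-36° C. The lowest growth-inhibiting concentration gave the MIC (μg/ml).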

[5] = test system: S. haemolyticus (Meth^R); experiment: In vitro antibacterial evaluation, MIC by agar dilution, S. haemolyticus; format: cell-based
In short: as §1

[6] = test system: E. faecium ATCC 35667; experiment: In vitro antibacterial evaluation, MIC by agar dilution, E. faecium ATCC 35667; format: cell-based
In short: as §1

[7] = test system: E. faecalis ATCC 29212; experiment: In vitro antibacterial evaluation, MIC by agar dilution, E. faecalis ATCC 29212; format: cell-based; conditions: E. faecalis ATCC 29212
In short: as §1

[8] = test system: E. coli ATCC 25922; experiment: In vitro antibacterial evaluation, MIC by agar dilution, E. coli ATCC 25922; format: cell-based
In short: as §1

[9] = test system: P. aeruginosa ATCC 27853; experiment: In vitro antibacterial evaluation, MIC by agar dilution, P. aeruginosa ATCC 27853; format: cell-based
In short: as §1

[10] = test system: X. maltophilia ATCC 13637; experiment: In vitro antibacterial evaluation, MIC by agar dilution, X. maltophilia ATCC 13637; format: cell-based; conditions: Stenotrophomonas maltophilia, ATCC13637
Procedure: (§2) The compounds of the invention were evaluated against several β-lactamresistant bacteria strains by determining the minimum inhibitory concentration (MIC, μg/ml) of each compound with respect to each strain. The MIC, the lowest concentration of antibiotic which inhibits growth of the test organism, was determined by the agar dilution method.
(§3) To determine the MIC for bacterial isolates, the test compound was incorporated in a series of two-fold dilutions into liquified Mueller-Hinton agar. Upon solidification, a number of different bacterial strains were spot inoculated with a replicating device onto the agar surface. […] The procedures used in these studies have been standardized by the National Committee for Clinical Laboratory Standards (NCCLS), as per the NCCLS publication entitled METHODS FOR DILUTION ANTIMICROBIAL SUSCEPTIBILITY TESTS (1991), which is incorporated herein by reference.
(§4) Aliquots of antimicrobial agents were prepared in phosphate buffered saline (PBS) at pH 7.2. Tween 20 or DMSO was used as a solubilizing vehicle as needed. Standard methods of vortexing, sonicating and gentle heat were used to facilitate solubilizing the test agent. Typically, the concentration of the stock solution was 10× that of the highest drug concentration tested. A 1.28 mg/mL stock solution was used with a subsequent highest working concentration of 128 μg/mL. Serial two-fold dilutions were done through ≤0.25 μg/mL. Each drug level was tested in duplicate. Two-fold drug dilutions were done in sterile 50 mL tubes with a final drug volume of 5 mL. Upon the addition of 45 mL of molten agar, a 10-fold dilution resulted. Two, 25 mL. plates were then poured into 15×150 mm square Petri plates with grids and allowed to harden.
(§5) A control plate with a reference drug, either cefotaxime, vancomycin or imipenem, was used as the positive growth control. Stock concentrations of reference antibiotics were prepared and frozen at -80° C. Upon preparation, the control plates were sealed and stored in the refrigerator for up to 1 week prior to use; however, imipenem control plates had to be prepared just prior to use. All test plates were used within 24 hours of preparation.
(§6) Satisfactory results were obtained where the inoculum contained about 10^4 colony forming units (cfu) ±0.5 logs. Starting with pure cultures of the test isolates on agar plates, a few isolated colonies were transferred to a tube of nutrient broth and allowed to grow 4-6 hours at 35°-36° C. to reach log-phase growth. Dropwise addition of the broth culture to PBS was done to match a 0.5 McFarland turbidity standard equal to 10^8 cfu/mL. This was further diluted ten-fold in PBS to reach a working inoculum concentration of 10^7 cfu/mL. When 1 μL of the working inoculum was applied to the agar surface a concentration of about 10^4 cfu per spot was obtained.
(§7) Disposable sterile 1 μL loops were used to inoculate test plates, with each isolate in a designated grid on the agar plate. An alternate method of inoculation involved the use of a replica plater, a device with 48 steel pins allowing the simultaneous inoculation of multiple isolates. After the spots had dried, the plates were incubated at 35°-36° C. for 16-20 hours. Endpoints were assessed as the minimum inhibitory concentration (MIC) of antimicrobial agent.

[11] = test system: methicillinsusceptible S. aureus strain ATCC 13709; experiment: In vivo antibacterial evaluation, murine model for lethal bacteremic peritonitis; design: species or system S. aureus in female Swiss-Webster mice; conditions: Staphylococcus aureus, ATCC13709, sc, 72 h, two equal SC doses at challenge and 2 hours later, mice, probit, read-out: ED50
In short: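 Female Swiss-Webster mice received IP an LD100 bacterial titer in 7% hog gastric mucin, then two equal subcutaneous doses (at challenge and 2 h later) of two-fold increments of drug, range 0.01–512 mg/kg. Survival scored at 72 h; PD50 (total mg/kg) by probit, groups of 10.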

[12] = test system: methicillinsusceptible S. aureus strain ATCC 13709; experiment: Challenge strain MIC; format: cell-based; conditions: Staphylococcus aureus, ATCC13709, S. aureus ATCC 13709; read-out: Challenge str MIC
In short: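 MIC was found by agar dilution to NCCLS standards: two-fold compound dilutions from 128 μg/mL through ≤0.25 μg/mL in Mueller-Hinton agar, each level in duplicate. Log-phase inocula of about 10^4 cfu per spot were applied. Plates were incubated 16-20 h at 35°-36° C, and the MIC was the lowest concentration inhibiting growth.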

[13] = test system: S. aureus Col (Meth^R)(lac^-); experiment: In vitro antibacterial evaluation, MIC by agar dilution, S. aureus Col; format: cell-based
Procedure: as §2, §3, §4, §5, §6, §7
The novel agents of this invention are notable for their enhanced activity against S. aureus Col and Enterococci (E. faecium and E. faecalis). […]

[14] = test system: S. aureus 76 (Meth^R)(lac^+); experiment: In vitro antibacterial evaluation, MIC by agar dilution, S. aureus 76; format: cell-based
In short: as §1

[15] = test system: Enterococci (E. faecium and E. faecalis); experiment: In vitro antibacterial evaluation, Enterococci (E. faecium and E. faecalis); format: cell-based
Procedure: as §2, §3
Aliquots of antimicrobial agents were prepared in phosphate buffered saline (PBS) at pH 7.2. Tween 20 or DMSO was used as a solubilizing vehicle as needed. Standard methods of vortexing, sonicating and gentle heat were used to facilitate solubilizing the test agent. […]
Disposable sterile 1 μL loops were used to inoculate test plates, with each isolate in a designated grid on the agar plate. […] Endpoints were assessed as the minimum inhibitory concentration (MIC) of antimicrobial agent. […]

[16] = test system: MRSA strains; conditions: background art; cited from earlier work
[17] = S. aureus ATCC 29213, read-out: MIC
[18] = Staphylococcus aureus, ATCC25923, S. aureus ATCC 25923, read-out: MIC
[19] = Staphylococcus epidermidis, ATCC31432, S. epidermidis ATCC 31432, read-out: MIC
[20] = Staphylococcus haemolyticus, read-out: MIC
[21] = Enterococcus faecium, ATCC35667, read-out: MIC
[22] = Enterococcus faecalis, ATCC29212, read-out: MIC
[23] = Escherichia coli, ATCC25922, read-out: MIC
[24] = Pseudomonas aeruginosa, ATCC27853, read-out: MIC
[25] = Staphylococcus aureus, ATCC25923
[26] = Staphylococcus epidermidis, ATCC31432
[27] = Staphylococcus aureus, read-out: MIC

| Molecule | MIC [2, 18] [µg/mL] | MIC [3, 19] [µg/mL] | MIC ([4]; Staphylococcus aureus) [µg/mL] | MIC [5, 20] [µg/mL] | MIC [6, 21] [µg/mL] | MIC [7, 22] [µg/mL] | MIC [8, 23] [µg/mL] | MIC [9, 24] [µg/mL] | MIC [10] [µg/mL] | MIC [14, 27] [µg/mL] | also measured |
| --- | --- | --- | --- | --- | --- | --- | --- | --- | --- | --- | --- |
| CO/N=C(\C(=O)N[C@@H]1C(=O)N2C(C(=O)O)=C(COC(C)=O)CS[C@H]12)c1csc(N)n1 [Cefotaxime, (7R)-3-Acetoxymethyl-7-[(Z)-2-(aminothiazol-4-yl)-2-(methoxyimino)acetamido]-3-cephem-4-carboxylic acid, reference compound] | < 1 | 2 (≈ 4.39 µM) | 2 (≈ 4.39 µM) | > 32 | > 32 | > 32 | < 1 | 8 to 16 (≈ 17.6 to 35.1 µM) | > 32 |  | MIC [1, 17]: 2 µg/mL (≈ 4.39 µM); ED50 [11]: 7.47 mg/kg; MIC [12]: 2 µg/mL (≈ 4.39 µM) |
| O=C(Cc1ccccc1)N[C@@H]1C(=O)N2C(C(=O)O)=C(Sc3ccccc3I)CS[C@H]12 [Cmpd 6, (7R)-7-[(Phenylacetyl)amino]-3-(o-iodophenylthio)-3-cephem-4-carboxylic acid] |  |  | < 0.015 | 4 (≈ 7.24 µM) | 0.5 (≈ 0.905 µM) | 0.5 (≈ 0.905 µM) | > 32 | > 32 | > 32 | 1 (≈ 1.81 µM) | MIC [1]: < 0.015 µg/mL; MIC [2, 25]: < 0.015 µg/mL; MIC [3, 26]: < 0.015 µg/mL; activity against S. aureus Col, S. aureus Col 8A and Enterococci ([13]; S. aureus Col): broad activity against both S. aureus Col and S. aureus Col 8A, as well as Enterococci |
| O=C(Cc1ccccc1)N[C@@H]1C(=O)N2C(C(=O)O)=C(Sc3ccccc3-c3ccccc3)CS[C@H]12 [Cmpd 9, (7R)-7-((Phenylacetyl)amino]-3-(2-biphenylthio)-3-cephem-4-carboxylic acid] | 0.125 (≈ 0.249 µM) | 0.125 (≈ 0.249 µM) | 0.25 (≈ 0.497 µM) | 0.125 (≈ 0.249 µM) | 2 (≈ 3.98 µM) | 4 (≈ 7.96 µM) | > 32 | > 32 | > 32 | 8 (≈ 15.9 µM) | MIC [1]: 0.25 µg/mL (≈ 0.497 µM); activity against S. aureus Col, S. aureus Col 8A and Enterococci ([13]; S. aureus Col): broad activity against both S. aureus Col and S. aureus Col 8A, as well as Enterococci |
| O=C(Cc1ccccc1)N[C@@H]1C(=O)N2C(C(=O)O)=C(SCc3ccc(-c4ccccc4)cc3)CS[C@H]12 [Cmpd 12, (7R)-7-[(Phenylacetyl)amino]-3-(4-biphenylmethylthio)-3-cephem-4-carboxylic acid] | < 0.06 | < 0.06 | < 0.06 |  |  | 4 (≈ 7.74 µM) | > 32 | > 32 | > 32 |  | MIC [1, 17]: < 0.06 µg/mL; activity against S. aureus Col ([13]; S. aureus Col): lacking activity against S. aureus Col; activity against enterococci [15]: potent activity against enterococci |
| N=C(N)SCc1ccc(SC2=C(C(=O)O)N3C(=O)[C@@H](NC(=O)Cc4ccccc4)[C@H]3SC2)c(I)c1 [Cmpd 58, (7R)-7-[(Phenylacetyl)amino]-3-(4-isothiouroniummethyl-2-iodophenylthio)-3-cephem-4-carboxylic acid] |  |  | < 0.25 | 4 (≈ 6.24 µM) | 0.5 (≈ 0.781 µM) | 1 (≈ 1.56 µM) | 32 (≈ 50 µM) | > 32 |  | 4 (≈ 6.24 µM) | MIC [2, 25]: < 0.25 µg/mL; MIC [3, 26]: < 0.25 µg/mL; MIC ([13]; Staphylococcus aureus): < 0.25 µg/mL |
| C[C@@H](O)[C@H]1C(=O)N2C(C(=O)O)=C(SCCN=CN)C[C@H]12 [imipenem] |  |  |  |  |  |  |  |  |  |  | activity against MRSA strains [16]: active against a few MRSA strains |
| (7R)-7-[(Phenylacetyl)amino]-3-(2,3-dihydro-2,2-dimethylbenzofuran-7-yl)-3-cephem-4-carboxylic acid [Cmpd 55] |  |  |  |  |  |  |  |  |  |  | MIC ([2]; S. aureus ATCC 25923): < 0.25 µg/mL; MIC ([3]; S. epidermidis ATCC 31432): < 0.25 µg/mL; MIC ([13]; S. aureus Col (Meth^R)(lac^-), high-level PBP2a producer): 4 µg/mL; MIC [14]: 16 µg/mL; MIC ([4]; S. aureus Col8A (Meth^S)(lac^-), lacks PBP2a): < 0.25 µg/mL; MIC [5]: 16 µg/mL; MIC [6]: 8 µg/mL; MIC [7]: 16 µg/mL; MIC [8]: > 32 µg/mL; MIC [9]: > 32 µg/mL |
